Assay results as given in ChEMBL document CHEMBL4321855, “Targeting CXCR1/2: The medicinal potential as cancer immunotherapy agents, antagonists research highlights and challenges ahead” (Eur J Med Chem, 2020).

How the values were obtained:
[1] = target: T1, C-X-C chemokine receptor type 2 (Homo sapiens, UniProt P25025); experiment: Displacement of [125I]IL-8 from human CXCR2 expressed in CHO cells; type: cell-based
T1 sequence (P25025 whole entry): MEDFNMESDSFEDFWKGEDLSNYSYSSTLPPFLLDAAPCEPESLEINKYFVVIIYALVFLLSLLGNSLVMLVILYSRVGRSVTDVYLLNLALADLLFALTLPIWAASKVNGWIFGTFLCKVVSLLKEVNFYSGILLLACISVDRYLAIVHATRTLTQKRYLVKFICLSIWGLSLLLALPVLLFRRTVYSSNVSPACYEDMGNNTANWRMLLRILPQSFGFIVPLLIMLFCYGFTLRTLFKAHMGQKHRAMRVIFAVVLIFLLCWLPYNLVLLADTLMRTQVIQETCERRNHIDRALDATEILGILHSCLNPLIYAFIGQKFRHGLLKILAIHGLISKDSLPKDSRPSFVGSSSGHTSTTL

[2] = Oral bioavailability in rat; type: ADME, organism-based; settings: in vivo
[3] = target: T1, C-X-C chemokine receptor type 2; experiment: Antagonist activity at CXCR2 in human neutrophils assessed as reduction in GROalpha stimulated intracellular calcium mobilisation by FLIPR assay; type: functional, cell-based
[4] = target: T1, C-X-C chemokine receptor type 2; experiment: Antagonist activity at CXCR2 (unknown origin) stably expressed in HEK293 cells co-expressing Galpha16 assessed as reduction in IL-8-induced intracellular calcium change incubated for 10 mins by Fluo-4AM dye based fluorescence assay; type: functional, cell-based
Homo sapiens [5] = species: Homo sapiens; experiment: Selectivity ratio of IC50 for antagonist activity at CXCR1 (unknown origin) stably expressed in HEK293 cells co-expressing Galpha16 to antagonist activity at CXCR2 (unknown origin) stably expressed in HEK293 cells co-expressing Galpha16; type: cell-based
[6] = target: T2, C-X-C chemokine receptor type 1 (Homo sapiens, UniProt P25024); experiment: Antagonist activity at CXCR1 (unknown origin) stably expressed in HEK293 cells co-expressing Galpha16 assessed as reduction in IL-8-induced intracellular calcium change incubated for 10 mins by Fluo-4AM dye based fluorescence assay; type: functional, cell-based
T2 sequence (P25024 whole entry): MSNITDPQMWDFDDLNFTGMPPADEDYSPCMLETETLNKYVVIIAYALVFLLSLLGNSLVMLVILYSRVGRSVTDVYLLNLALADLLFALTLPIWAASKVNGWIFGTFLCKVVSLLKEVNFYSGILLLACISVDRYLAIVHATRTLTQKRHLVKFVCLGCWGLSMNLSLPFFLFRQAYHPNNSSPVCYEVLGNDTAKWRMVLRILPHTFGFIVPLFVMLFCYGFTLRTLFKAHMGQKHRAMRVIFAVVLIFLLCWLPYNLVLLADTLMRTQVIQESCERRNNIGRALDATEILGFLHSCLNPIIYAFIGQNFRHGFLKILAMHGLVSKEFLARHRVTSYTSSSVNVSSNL

[7] = target: T1, C-X-C chemokine receptor type 2; experiment: Antagonist activity at CXCR2 (unknown origin) expressed in human U2OS cells cp-expressing betaarrestin-2/TEV protease and beta lactamase assessed as effect on beta-arrestin2 recruitment preincubated for 30 mins followed by IL-8 addition and further incubated for 5 hrs subsequently adding CCF4-AM staining and measured after 2 hrs by Tango assay; type: cell-based
SK-OV-3 = experiment: Antitumor activity against human SKOV3 cells xenografted in athymic Nu/Nu mouse assessed as reduction in tumor volume at 10 mg/kg/day, ip co-treated with sorafenib 30 mg/kg, po relative to sorafenib alone; type: functional; design: scale not given: the % may be the effect or the level left
[8] = target: T1, C-X-C chemokine receptor type 2; experiment: Antagonist activity at CXCR2 (unknown origin)
[9] = target: T2, C-X-C chemokine receptor type 1; experiment: Displacement of [125I]IL-8 from CXCR1 in human neutrophils incubated for 3 hrs by gamma counting method
[10] = target: T1, C-X-C chemokine receptor type 2; experiment: Displacement of [125I]IL-8 from CXCR2 in human neutrophils incubated for 3 hrs by gamma counting method
Homo sapiens [11] = species: Homo sapiens; experiment: Selectivity ratio of IC50 for displacement of [125I]IL-8 from CXCR1 (unknown origin) to IC50 for displacement of [125I]IL-8 from CXCR2 (unknown origin)
[12] = target: T3, C-X-C chemokine receptor type 2 (Homo sapiens) (UniProt P25025); experiment: Displacement of [125I]-IL-8 from human CXCR2 expressed in CHO cells membrane at 20 uM relative to control; type: cell membranes
T3 sequence (whole entry): T1 sequence (P25025 whole entry)

A375-SM [13] = experiment: Antitumor activity against human A375SM cells xenografted in athymic nude mice assessed as reduction in tumor volume at 100 mg/kg, po for 21 days; type: functional
A375-SM [14] = experiment: Antitumor activity against human A375SM cells xenografted in athymic nude mice assessed as reduction in blood vessels formation at 100 mg/kg, po for 21 days and measured on day 50 by immunohistochemistry relative to control; type: functional; design: scale not given: the % may be the effect or the level left
[15] = target: T1, C-X-C chemokine receptor type 2; experiment: Antagonist activity at CXCR2 in human U2OS cells assessed as effect on beta-arrestin2 recruitment by CCF4-AM staining based Tango assay; type: cell-based
[16] = target: T1, C-X-C chemokine receptor type 2; experiment: Antagonist activity at GFP-tagged CXCR2 (unknown origin) expressed in 293T cells assessed as suppression of IL-8-induced inhibition of forskolin-stimulated cAMP accumulation preincubated for 10 mins followed by IL-8 addition and measured after 10 mins by cAMP assay; type: functional, cell-based

## CC[C@@H](Nc1c(Nc2ccnc(C(=O)N(C)C)c2O)c(=O)c1=O)c1ccc(C)o1
[1]
  IC50: 2 nM

## Sc1nc(-c2ccccc2Cl)nn1Cc1cccc(Cl)c1
[2]
  bioavailability: 61%
[3]
  IC50: 48 nM

## O=C(c1cccc(Nc2c(NC3C[C@@H]4CC[C@H]3C4)c(=O)c2=O)c1O)N1CCCC1 (stereo not given in full)
[4]
  IC50: 48 nM
Homo sapiens [5]
  Ratio IC50: 60
[6]
  IC50: 2900 nM

## C[C@@H](NC1=C(C(=O)Nc2ccc(Cl)c(C(F)(F)F)c2)C(=O)CC(C)(C)C1)c1ccccc1
[7]
  IC50: 2500 nM

## O=C(Nc1ccc([N+](=O)[O-])cc1O)Nc1ccccc1Br
SK-OV-3
  Activity: 42%

## CCN(CC)Nc1c(Nc2cccc(C(=O)N(C)C)c2O)c(=O)c1=O
[8]
  IC50: 0.12 nM

## Cc1ccc([C@H](Nc2c(Nc3cccc(S(=O)(=O)N4CCN(C)CC4)c3O)c(=O)c2=O)[C@H]2CCCS2)o1
[8]
  IC50: 17 nM

## CCN(CC)CCCCNc1nc2cc(Cl)c(Cl)cc2nc1-c1cc2ccccc2o1
[9]
  IC50: 230 nM
[10]
  IC50: 30 nM

## CC(=O)c1c(C)oc2c1cc(NS(=O)(=O)c1ccc(C(C)(C)C)cc1)c1ccccc12
[7]
  IC50: 7600 nM

## O=C(Nc1ccccc1)Nc1ccc([N+](=O)[O-])cc1O
Homo sapiens [11]
  Ratio IC50: 433

## CS(=O)(=O)c1ccc(C(=O)Nc2ccc(F)cc2)c[n+]1[O-]
[12]
  inhibition: 93%

## N#Cc1ccc(NC(=O)Nc2ccccc2Br)c(O)c1Br
Homo sapiens [11]
  Ratio IC50: 57

## CC[C@@H](Nc1c(Nc2cccc(C(=O)N(C)C)c2O)c(=O)c1=O)c1ccc(C)o1 [NAVARIXIN ANHYDROUS]
A375-SM [13]
  fold change (FC): 4.5
A375-SM [14]
  Activity: 45%

## CC1(C)CC(=O)C(C(=S)Nc2ccccc2)=C(NCc2ccccc2)C1
[15]
  IC50: 6300 nM

## CCSc1nnc2n(-c3ccccc3)c(=O)c3c4c(sc3n12)CCC[C@H]4C
[16]
  IC50: 7800 nM
